We go through 25 compounds from ChEMBL document CHEMBL1781871, “Discovery and SAR of novel mGluR5 non-competitive antagonists not based on an MPEP chemotype” (Bioorg Med Chem Lett, 2009).

In assay [1] the target is T1, Metabotropic glutamate receptor 5 (Homo sapiens, UniProt P41594). The assay is described as follows: Non-competitive antagonist activity at mGluR5 at 30 uM relative to glutamate. In kind it is functional. More on the design: scale not given: the % may be the effect or the level left.
Target sequence in this assay (P41594 21-1212 limits assumed): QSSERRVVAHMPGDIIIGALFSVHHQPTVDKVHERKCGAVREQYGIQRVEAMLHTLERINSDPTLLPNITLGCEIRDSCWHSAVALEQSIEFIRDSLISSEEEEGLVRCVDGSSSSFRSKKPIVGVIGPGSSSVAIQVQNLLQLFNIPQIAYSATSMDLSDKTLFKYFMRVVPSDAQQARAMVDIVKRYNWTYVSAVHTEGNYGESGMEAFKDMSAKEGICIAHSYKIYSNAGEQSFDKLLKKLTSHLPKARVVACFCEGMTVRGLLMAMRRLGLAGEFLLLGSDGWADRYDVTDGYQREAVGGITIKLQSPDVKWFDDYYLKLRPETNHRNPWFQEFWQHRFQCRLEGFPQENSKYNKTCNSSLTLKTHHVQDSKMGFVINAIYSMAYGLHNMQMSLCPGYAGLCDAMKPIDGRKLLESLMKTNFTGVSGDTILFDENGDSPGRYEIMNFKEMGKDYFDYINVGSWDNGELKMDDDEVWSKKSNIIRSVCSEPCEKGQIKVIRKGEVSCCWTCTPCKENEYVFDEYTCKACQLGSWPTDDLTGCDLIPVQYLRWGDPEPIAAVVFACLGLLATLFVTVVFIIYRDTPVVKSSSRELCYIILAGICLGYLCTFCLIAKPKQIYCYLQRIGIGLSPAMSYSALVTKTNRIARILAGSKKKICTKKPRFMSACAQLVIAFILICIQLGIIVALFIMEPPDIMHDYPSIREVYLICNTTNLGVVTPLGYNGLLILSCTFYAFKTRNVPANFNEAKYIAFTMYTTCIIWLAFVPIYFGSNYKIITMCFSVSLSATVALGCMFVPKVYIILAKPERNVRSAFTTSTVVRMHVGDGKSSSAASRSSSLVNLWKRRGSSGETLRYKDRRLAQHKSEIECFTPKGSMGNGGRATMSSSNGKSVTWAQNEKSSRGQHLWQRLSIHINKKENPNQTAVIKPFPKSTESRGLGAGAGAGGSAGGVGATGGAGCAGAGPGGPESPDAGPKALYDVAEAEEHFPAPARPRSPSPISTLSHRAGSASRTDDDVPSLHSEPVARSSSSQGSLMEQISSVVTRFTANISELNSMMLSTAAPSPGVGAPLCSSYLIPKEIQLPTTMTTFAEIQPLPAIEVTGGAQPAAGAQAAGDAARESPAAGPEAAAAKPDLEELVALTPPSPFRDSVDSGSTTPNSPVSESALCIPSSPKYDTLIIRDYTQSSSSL
The target of assay [2] is T1, Metabotropic glutamate receptor 5. As to the kind of experiment: Non-competitive antagonist activity at mGluR5. The class given is functional.
Target sequence in this assay (P41594 whole entry): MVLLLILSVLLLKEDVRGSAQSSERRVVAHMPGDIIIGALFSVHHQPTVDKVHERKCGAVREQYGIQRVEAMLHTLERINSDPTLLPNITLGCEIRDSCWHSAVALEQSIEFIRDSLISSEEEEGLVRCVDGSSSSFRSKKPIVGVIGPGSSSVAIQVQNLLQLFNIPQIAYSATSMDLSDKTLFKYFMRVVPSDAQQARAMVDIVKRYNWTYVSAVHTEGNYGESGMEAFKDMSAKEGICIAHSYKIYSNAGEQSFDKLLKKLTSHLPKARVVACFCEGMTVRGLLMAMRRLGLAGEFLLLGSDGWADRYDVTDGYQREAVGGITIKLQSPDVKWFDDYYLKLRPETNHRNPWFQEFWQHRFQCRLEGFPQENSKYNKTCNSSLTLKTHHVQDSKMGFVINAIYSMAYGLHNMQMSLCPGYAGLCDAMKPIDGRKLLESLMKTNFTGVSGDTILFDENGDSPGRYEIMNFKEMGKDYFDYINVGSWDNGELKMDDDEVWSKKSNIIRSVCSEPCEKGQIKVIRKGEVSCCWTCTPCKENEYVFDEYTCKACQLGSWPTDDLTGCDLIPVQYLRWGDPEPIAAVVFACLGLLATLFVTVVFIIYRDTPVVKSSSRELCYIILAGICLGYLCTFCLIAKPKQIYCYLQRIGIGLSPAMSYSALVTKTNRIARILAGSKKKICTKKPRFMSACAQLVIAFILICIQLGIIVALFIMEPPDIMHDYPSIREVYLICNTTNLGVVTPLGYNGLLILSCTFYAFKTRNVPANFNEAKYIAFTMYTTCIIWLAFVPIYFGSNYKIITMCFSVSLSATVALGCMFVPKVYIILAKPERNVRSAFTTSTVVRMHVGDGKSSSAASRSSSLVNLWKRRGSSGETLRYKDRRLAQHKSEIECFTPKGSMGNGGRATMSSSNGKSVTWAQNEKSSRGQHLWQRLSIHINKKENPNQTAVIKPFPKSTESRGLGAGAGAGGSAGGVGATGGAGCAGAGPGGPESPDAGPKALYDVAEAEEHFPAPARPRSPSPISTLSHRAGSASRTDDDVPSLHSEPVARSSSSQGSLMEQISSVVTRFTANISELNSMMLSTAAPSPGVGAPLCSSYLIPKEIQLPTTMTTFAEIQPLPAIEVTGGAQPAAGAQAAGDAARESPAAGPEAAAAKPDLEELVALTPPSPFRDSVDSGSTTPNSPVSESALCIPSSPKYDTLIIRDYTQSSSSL
For assay [3] the target is unchanged. The assay is described as follows: Positive allosteric modulation of mGluR5 at 30 uM relative to glutamate.
Target sequence in this assay (P41594 21-1212 limits assumed): as the sequence (P41594 21-1212 limits assumed) above
For assay [4] the target is unchanged. As to the kind of experiment: Positive allosteric modulation of mGluR5.
Target sequence in this assay (P41594 whole entry): as the sequence (P41594 whole entry) above
Assay [5] concerns the target Metabotropic glutamate receptor 8 (Homo sapiens, UniProt O00222). The assay is described as follows: Inhibition of mGluR8.
The target in assay [6] is Metabotropic glutamate receptor 7 (Homo sapiens, UniProt Q14831). The assay is described as follows: Inhibition of mGluR7.
Assay [7] deals with Metabotropic glutamate receptor 3 (Homo sapiens, UniProt Q14832). The assay is described as follows: Inhibition of mGluR3.
Assay [8] has as its target Metabotropic glutamate receptor 2 (Homo sapiens, UniProt Q14416). As to the kind of experiment: Inhibition of mGluR2.
Assay [9] deals with Metabotropic glutamate receptor 4 (Homo sapiens, UniProt Q14833). As to the kind of experiment: Inhibition of mGluR4.
The target of assay [10] is Metabotropic glutamate receptor 1 (Homo sapiens, UniProt Q13255). As to the kind of experiment: Inhibition of mGluR1.

Sequence of Metabotropic glutamate receptor 2 (Q14416 whole entry): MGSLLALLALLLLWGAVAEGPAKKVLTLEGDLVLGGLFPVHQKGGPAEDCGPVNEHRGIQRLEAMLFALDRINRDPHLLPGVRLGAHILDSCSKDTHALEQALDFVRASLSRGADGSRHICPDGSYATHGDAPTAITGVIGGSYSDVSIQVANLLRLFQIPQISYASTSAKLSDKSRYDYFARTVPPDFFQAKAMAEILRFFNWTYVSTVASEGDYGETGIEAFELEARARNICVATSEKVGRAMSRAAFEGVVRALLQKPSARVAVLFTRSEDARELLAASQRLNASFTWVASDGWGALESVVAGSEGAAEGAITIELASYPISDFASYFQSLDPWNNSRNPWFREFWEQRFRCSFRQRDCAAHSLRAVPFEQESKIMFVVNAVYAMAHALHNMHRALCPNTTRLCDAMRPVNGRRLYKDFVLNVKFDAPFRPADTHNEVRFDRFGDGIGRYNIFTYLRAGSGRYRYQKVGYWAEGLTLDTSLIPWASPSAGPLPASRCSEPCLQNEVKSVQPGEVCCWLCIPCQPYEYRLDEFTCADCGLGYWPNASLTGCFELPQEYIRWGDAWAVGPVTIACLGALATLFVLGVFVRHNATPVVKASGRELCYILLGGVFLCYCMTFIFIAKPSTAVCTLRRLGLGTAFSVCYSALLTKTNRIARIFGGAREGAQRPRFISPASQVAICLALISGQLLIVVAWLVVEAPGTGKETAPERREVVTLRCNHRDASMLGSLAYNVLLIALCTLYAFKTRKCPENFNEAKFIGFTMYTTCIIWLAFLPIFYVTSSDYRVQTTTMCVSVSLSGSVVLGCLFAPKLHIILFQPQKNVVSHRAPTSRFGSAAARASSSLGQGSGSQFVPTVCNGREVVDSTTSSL
Sequence of Metabotropic glutamate receptor 8 (O00222 whole entry): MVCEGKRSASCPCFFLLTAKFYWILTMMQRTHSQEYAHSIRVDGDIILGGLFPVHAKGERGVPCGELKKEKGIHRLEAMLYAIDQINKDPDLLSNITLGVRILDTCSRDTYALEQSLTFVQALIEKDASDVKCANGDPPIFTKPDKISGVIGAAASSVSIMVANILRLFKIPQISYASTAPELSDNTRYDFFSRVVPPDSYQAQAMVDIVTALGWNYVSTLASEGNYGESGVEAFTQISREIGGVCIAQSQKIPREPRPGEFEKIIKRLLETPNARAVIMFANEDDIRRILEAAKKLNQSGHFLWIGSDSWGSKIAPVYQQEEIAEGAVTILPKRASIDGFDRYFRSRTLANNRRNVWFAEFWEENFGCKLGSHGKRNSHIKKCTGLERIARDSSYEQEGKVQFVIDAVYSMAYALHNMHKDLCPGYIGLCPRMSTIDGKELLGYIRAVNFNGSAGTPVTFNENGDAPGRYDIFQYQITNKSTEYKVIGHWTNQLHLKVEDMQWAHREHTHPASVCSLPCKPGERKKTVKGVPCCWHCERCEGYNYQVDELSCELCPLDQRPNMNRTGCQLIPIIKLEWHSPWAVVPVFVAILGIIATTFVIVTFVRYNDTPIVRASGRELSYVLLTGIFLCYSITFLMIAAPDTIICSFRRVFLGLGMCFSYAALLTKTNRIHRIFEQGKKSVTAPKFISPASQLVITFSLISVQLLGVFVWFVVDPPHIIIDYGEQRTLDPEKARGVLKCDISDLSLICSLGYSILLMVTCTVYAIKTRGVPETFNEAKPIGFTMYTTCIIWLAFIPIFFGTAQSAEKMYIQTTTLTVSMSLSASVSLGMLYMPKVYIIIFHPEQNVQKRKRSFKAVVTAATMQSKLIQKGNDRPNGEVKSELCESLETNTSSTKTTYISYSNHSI

Consider `O=C(C1CC1)N1CCCC2(CCCCC2)C1`, for which, in assay [1], the Activity is 40.6%. Further, in assay [2], the half-inhibitory concentration (IC50) is above 10 µM.

Compound `O=C(c1cccnc1)N1CCCC2(CCCCC2)C1` had a 50% inhibitory concentration (IC50) in [2] above 30 µM.

The compound `Cc1cc(C)c2c(N)c(C(=O)c3ccccc3)oc2n1` showed an Activity in assay [1] of 36%. The compound further had an IC50 in [2] above 10 µM.

In turn, `N#Cc1ccccc1N1CCN(C(=O)C23CC4CC(CC(C4)C2)C3)CC1` returned an Activity in [1] of 3.68%.

In assay [1], `Cc1cc(C(F)(F)F)c2c(N)c(C(=O)c3ccc(F)cc3)oc2n1` yielded an Activity of 1.58%. Moreover, the concentration for half-maximal inhibition (IC50) in assay [2] amounted to 0.84 µM.

As to `O=C(C1CCCCC1)N1CCCC2(CCCCC2)C1`, the 50% inhibitory concentration (IC50) in assay [2] was above 30 µM.

Take `COc1ccccc1N1CCN(C(=O)C23CC4CC(CC(C4)C2)C3)CC1`: the Activity in [1] is 52%. In assay [2], the IC50 is above 10 µM.

As for `O=C(N1CCN(c2ccccc2Cl)CC1)C12CC3CC(CC(C3)C1)C2`, the IC50 in [2] is above 30 µM.

With `Nc1c(C(=O)c2ccc(F)cc2)oc2ncc(Br)cc12`, the Activity in [3] was 73.5%. A half-maximal response in assay [4] (EC50) required 7.6 µM.

Compound `O=C(N1CCN(c2nccs2)CC1)C12CC3CC(CC(C3)C1)C2` came in with an Activity in [1] of 1.16%. Moreover, the IC50 in assay [5], in [6], in [7], in assay [8] and in [9] was above 30 µM each time.

In the case of `O=C(N1CCN(c2ccccn2)CC1)C12CC3CC(CC(C3)C1)C2`, the Activity in assay [1] was determined as 3.75%. For the same compound, in [2], the IC50 was 0.99 µM.

Compound `O=C(N1CCN(c2cccnc2)CC1)C12CC3CC(CC(C3)C1)C2` returned an Activity in [1] of 30.2%. This compound had an IC50 in assay [2] above 10 µM.

As to `O=C(c1cnc2ccccc2n1)N1CCCC2(CCCCC2)C1`, the Activity in [1] is 2.39%. For the same compound, in assay [2], the half-inhibitory concentration (IC50) came out at 5.02 µM.

On to `O=C(N1CCN(c2ccncc2)CC1)C12CC3CC(CC(C3)C1)C2`, for which, in [2], the half-inhibitory concentration (IC50) is above 30 µM.

`O=C(c1ccco1)N1CCCC2(CCCCC2)C1` yielded an Activity in assay [1] of 2.64%. In addition, the IC50 in [2] was 1.54 µM.

For `O=C(Cc1cccs1)N1CCCC2(CCCCC2)C1`, the Activity in assay [1] came out at 52.1%. Further, the half-maximal inhibitory concentration (IC50) in assay [2] is above 10 µM.

In assay [3], `Cc1cc(O)nc2oc(C(=O)c3ccc(F)cc3)c(N)c12` yielded an Activity of 32.9%.

In turn, `O=C(C1CCC1)N1CCCC2(CCCCC2)C1` yielded an Activity in [1] of 1.12%. In addition, the IC50 in assay [5], in assay [6], in assay [7], in [8], in [9] and in assay [10] was above 30 µM each time.

Consider `O=C(c1cccs1)N1CCCC2(CCCCC2)C1`, for which, in assay [1], the Activity was 2.69%. This compound also had an IC50 in assay [2] of 1.18 µM.

In turn, `O=C(C1CCCC1)N1CCCC2(CCCCC2)C1` displayed an Activity in assay [1] of 26.1%. Besides, in [2], the IC50 is above 10 µM.

For the compound `Cc1cc(=O)[nH]c2oc(C(=O)c3ccc(F)cc3)c(N)c12`, the concentration for a half-maximal effect (EC50) in [4] is 6.1 µM.

In assay [1], `Cc1ccc(C(=O)N2CCCC3(CCCCC3)C2)cc1` had an Activity of 56.2%. For the same compound, the 50% inhibitory concentration (IC50) in [2] is above 10 µM.

Compound `Cc1cc(C)c2c(N)c(C(=O)c3ccc(F)cc3F)oc2n1` gave an Activity in assay [1] of 19.4%. For the same compound, the IC50 in assay [2] turned out to be 9.3 µM.

With `COCc1c(Cl)c(C)nc2oc(C(=O)c3ccc(F)cc3)c(N)c12`, the Activity in assay [3] was found to be 38.3%. The compound also came in with an EC50 in [4] of 6.5 µM.

In the case of `O=C(CSc1ccccc1)N1CCCC2(CCCCC2)C1`, the Activity in [1] was 4.23%.
